Test results: the METLIN SMRT retention time set (Domingo-Almenara et al. 2019)

Test: gradient 5% acetonitrile 3 min, to 50% in 2 min, to 85% in 15 min, held 3 min, 100 µL/min
Settings: column: Zorbax Extend-C18 2.1 x 50 mm; eluents: water / acetonitrile, 0.1% formic acid
Method in brief: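 Retention times of pure standards were taken from adduct peaks that were selected by computer and manually inspected. Over 3 months, mixtures of ~100 molecules were run by HPLC–quadrupole time-of-flight mass spectrometry in positive and negative ionization mode. The Zorbax Extend-C18 column (2.1 × 50 mm, 1.8 μm) ran at 100 μL/min in water and acetonitrile, each containing 0.1% formic acid, with 40 μL dead volume and 900 μL dwell volume.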

RP-LC retention time | Structure (SMILES)
743 s | COc1ccc(-c2noc(C3CC(=O)N(c4ccc(OC)c(OC)c4)C3)n2)cc1OC (configuration not stated)
853 s | O=C(NCc1nn(Cc2ccccc2)c2ccccc12)c1ccco1
942 s | Cc1ccc(-c2cn3c(CC(=O)NCCC4=CCCCC4)csc3n2)cc1C
966 s | Cc1cc(N2CCCCC2C)n2nc(-c3ccccc3)nc2n1 (configuration not stated)
566 s | Cn1c(N2CCC(C(=O)NCc3ccccn3)CC2)cc(=O)n(C)c1=O
756 s | CCN1c2ccccc2C(=O)NC12CCN(C(=O)c1ccc(F)cc1)CC2
785 s | CNC(=O)c1sc(-c2ccc(C)cc2)nc1C
917 s | Cc1sc2ccn(CC(C)C)c(=O)c2c1C(=O)NCc1ccc(F)cc1
681 s | CCN(CC)S(=O)(=O)c1ccc2c(c1)N(CC(=O)NC1CC1)C(=O)C1CCCCN21 (configuration not stated)
568 s | Cc1nn(CC(=O)N2CCN(c3ccccn3)CC2)c(=O)c2cccn12
902 s | CCCn1cc(CCNC(=O)Nc2ccc(Br)c(C)c2)c2cccnc21
1070 s | COc1ccc(-c2csc(Nc3ccccc3)n2)cc1
940 s | Cc1ccc(C)c(N2CCN(c3ccnc(SCC(=O)NC4CCCCC4)n3)CC2)c1
612 s | CCN1CCN(c2ccc(-c3ccc(C)c(S(=O)(=O)N4CCOCC4)c3)nn2)CC1
622 s | O=C(N[C@H]1C[C@@H]2C[C@H]1N(C(=O)c1ccccn1)C2)c1ccccc1
672 s | CCc1nccn1Cc1noc(-c2ccc(C)c(C)c2)n1
650 s | CSc1cccc(NC(=O)N2CCN(c3cc(C)nc(N4CCOCC4)n3)CC2)c1
958 s | COc1ccc(Cl)cc1C(=O)Nc1ccc2c(c1)CN(C(=O)c1cccs1)CC2
733 s | COc1cccc(NS(=O)(=O)c2cc3n(c2)CCN(C(C)C)C3=O)c1
726 s | O=C(NC1CCCC1)NC1CCN(c2ccccc2)C1=O (configuration not stated)
573 s | COCCN1CCC(N2CCCN(C(=O)c3ccc(F)c(Cl)c3)CC2)C1=O (configuration not stated)
953 s | O=C(Cc1ccc(Br)cc1)N1CCN(c2cc(-c3ccc(Cl)cc3)[nH]n2)CC1

RP-LC retention time | Structure (SMILES)
844 s | CCc1nnc(-c2cc(C)n(CC(=O)Nc3cc(F)cc(F)c3)c2C)o1
649 s | C=CCn1c(C(=O)N2CCN(c3ccccn3)CC2)cc2cc(S(=O)(=O)N(C)C)ccc21
592 s | CCNC(=O)CC1=C2CCCCC2NC1=O (configuration not stated)
761 s | CSc1nc(N2CCCC2)c2cnn(CCNC(=O)c3cc(-c4ccccc4)n[nH]3)c2n1
739 s | Cc1cc(C)n(-c2ccnc(N3CCC(C(=O)N4CCCC4)CC3)n2)n1
670 s | COCc1c(C(=O)O)nnn1-c1ccccc1F
817 s | CCN(CC)S(=O)(=O)N1CCC(C(=O)NCCc2ccccc2)CC1
1040 s | CSc1cccc(NC(=O)C2CCCN(C(=O)Cc3cccc4ccccc34)C2)c1 (configuration not stated)
1090 s | CCN(CC)S(=O)(=O)c1ccc(C)c(-c2nnc(-c3ccccc3)o2)c1
716 s | CCn1cnnc1C1CCCCN1S(=O)(=O)c1cccc(F)c1 (configuration not stated)
658 s | O=C(NCC1CCCO1)C1CCN(C(=O)c2ncn3c2COC(c2ccc(F)cc2)C3)CC1 (configuration not stated)
843 s | Cc1cc(C)cc(NC(=O)Cn2c(C)cc(-c3nnc(C)o3)c2C)c1
900 s | COc1ccc(CNC(=O)C2(C)CCCN(S(=O)(=O)c3ccccc3F)C2)cc1 (configuration not stated)
971 s | COC(=O)c1ccc(C(=O)NCC2(c3cccs3)CCCC2)cc1
637 s | COc1ccc(NC(=O)C2CCCN(c3nnc4ccccn34)C2)cc1 (configuration not stated)
641 s | COCCNC(=O)CSc1nc(-c2ccccc2)[nH]c1-c1ccccc1
1010 s | Cc1ccc(N2CC(c3nc(-c4cccc(-c5ccnn5C)c4)no3)CC2=O)cc1C (configuration not stated)
828 s | CCC(C)CC(=O)N1CCCN(C2=NS(=O)(=O)C(c3ccccc3)=C2C)CC1 (configuration not stated)
674 s | c1ccc(-c2noc(-c3ccc(OC4CNC4)cc3)n2)cc1
844 s | CC(=O)[C@@]1(O)CC[C@H]2[C@@H]3C[C@H](C)C4=CC(=O)C=C[C@]4(C)[C@@]3(F)[C@@H](O)C[C@@]21C
848 s | COc1ccc(NC(=O)C(C)C2CCN(C(=O)Nc3ccc(C)cc3)CC2)c(OC)c1 (configuration not stated)
619 s | COCC1CN(Cc2cn[nH]c2-c2ccc(F)cc2)CCC1(F)F (configuration not stated)

RP-LC retention time | Structure (SMILES)
712 s | CCn1cnc2ccc(-c3noc(COc4ccccc4OC)n3)cc21
860 s | Cc1ccc(C(=O)NC2CCN(c3cc(-c4ccc(Cl)cc4)[nH]n3)C2)cc1C (configuration not stated)
571 s | Cc1cc(=O)n(CC(=O)Nc2ccccc2C#N)cn1
563 s | CCN1CCN(C(=O)CCC(=O)N2CCc3c(c(C(=O)N4CCCC4)nn3C)C2)CC1
784 s | O=C(NCc1ccc(F)cc1F)c1ccc(OCC(=O)C2CC2)cc1
680 s | CCCCN(C)C(=O)Cn1c(C2CC(=O)N(C3CCCC3)C2)nc2ccccc21 (configuration not stated)
884 s | Cc1ccc(NC(=O)Cn2nc3c(N4CC(C)CC(C)C4)nccn3c2=O)cc1 (configuration not stated)
939 s | Cc1ccc(S(=O)(=O)Nc2ccc3c(c2)CCC(=O)N3CC(C)C)cc1C
776 s | O=C(Nc1ccc2c(c1)C(=O)Nc1ccccc1O2)NC1CCCCC1
768 s | CCOC(=O)c1nc(NCc2cc(OC)ccc2OC)c2ccccc2n1
658 s | Cc1cccc(C)c1Nc1c(-c2ccc(O)cc2)nc2ncccn12
768 s | CS(=O)(=O)N1CCC(OC2CCN(C(=O)Nc3ccccc3C(F)(F)F)CC2)CC1
766 s | CCn1cc(CCNC(=O)c2ccc(Br)cc2)c2cccnc21
705 s | CCn1cc(-c2ccc(Cl)cc2)cc1C(=O)NCCN1CCOCC1
1230 s | CCOc1ccc(S(=O)(=O)N2CCCC2c2nc(-c3ccc(Cl)cc3)no2)cc1 (configuration not stated)
809 s | CCCc1ccc(S(=O)(=O)N2CCC3(CC2)NCCN=C3NCc2ccccc2)cc1
891 s | CC1Oc2ccc(S(=O)(=O)N3CCC(C(=O)N4CCCc5ccccc54)CC3)cc2NC1=O (configuration not stated)
838 s | O=C(CN1N=C(C(=O)Nc2ccc(F)cc2)CCC1=O)Nc1ccc(F)c(F)c1
658 s | COc1cccc(Oc2nccnc2N2CCC(C(=O)N3CCN(c4ccccn4)CC3)CC2)c1
696 s | CCN(CC)CCNC(=O)c1nnc(-c2ccc(S(=O)(=O)N3CCC(C)CC3)cc2)o1
911 s | Cc1ccc(C)c2sc(OC3CCN(C(=O)c4ccc(=O)n(C)n4)CC3)nc12
885 s | Cc1cc(S(=O)(=O)N2C[C@@H](F)C[C@H]2C(=O)N2CCCCC2)ccc1Cl

Structure (SMILES) | RP-LC retention time
O=C(CN1CC=C(c2cnn(-c3ccc(F)cc3)c2)CC1)N1CCN(c2ccccc2F)CC1 | 748 s
